Patent US20080268535A1, “Method for Inducing the Differentiation of Human Myelogenous Leukemia Cells Into Megakarocytes or Thrombocytes” (EWHA University - Industry Collaboration Foundation, priority 2005, published 2008)

Key:
[1] = system: HEL cells; experiment: Megakaryocyte differentiation, CD41/CD61 expression over time by FACS, HEL cells; type: cell-based, human; conditions: 5 μg/ml, 5 days
Procedure: HEL cells were aliquoted at a density of 3×10^5 cells per well in 6-well plates and treated with 5 μg/ml of (R)-NALPCE, followed by incubation for 5 days. After centrifugation (1,000 rpm, 5 min), the cell pellets thus obtained were washed three times with 0.01% bovine serum albumin (BSA) in PBS. The cells were incubated with 10 μl of anti-CD41-fluorescein-5-isothiocyanate (FITC) (Dako Chemicals, Carpenteria, Calif.) or 20 μl of anti-CD61-phycoerythrin (PE) (BD Pharmingen) in 200 μl 0.01% bovine serum albumin (BSA)-PBS at 4° C. for 50 min with spinning to realize homogeneous fluorescent staining. After centrifugation (1,000 rpm, 10 min), the cell pellets thus obtained were rinsed three times with 0.01% bovine serum albumin (BSA)-PBS. Fluorescence was analyzed on a fluorescence-activated cell sorter (FACS) (Aria) using a Cellquest program.

[2] = system: K562 cells; experiment: Binding of FITC-fibrinogen to glycoprotein IIb/IIIa complexes of differentiated K562 cells (FACS); type: cell-based, human; conditions: K562 cells on OP9 cells, 40 μg/ml, 5 days, activated with 100 nM PMA
From the text: Bone marrow progenitor cells, such as K562 cells, have glycoprotein IIb/IIIa complexes expressed thereon at a low level, but the number of complexes increases as the cells increase in size according to differentiation into megakaryocytes. By taking advantage of the fact that fibrinogens, which play a key role in blood clotting, bind to activated glycoprotein IIb/IIIa (GP IIb/IIIa) complex, the differentiation of K562 cells into megakaryocytes by (R)-NALPCE was investigated.
A process similar to that of Experimental Example 8 was conducted. OP9 cells were aliquoted at a density of 1×10^5 cells in 6-well plates and incubated for 24 hrs. After the OP9 cells were uniformly attached onto the bottom of the plates, K562 cells were layered at a density of 1×10^5 cells over the OP9 cells in 6-well plates. The cells were treated with 40 μg/ml of (R)-NALPCE before incubation in a day-dependent manner for 5 days. The (R)-NALPCE-treated K562 cells were transferred to 60 mm-dishes everyday and treated with 100 nM of PMA for 30 min to activate glycoprotein IIb/IIIa complexes. The cells thus differentiated were collected and suspended in 50 μl of PBS. […] Following the addition of […] of PBS, the amount of fibrinogen bound to the surface of the activated K562 cells was quantitatively determined as fluorescence was analyzed on a fluorescence-activated cell sorter (FACS) (Aria) using a Cellquest program.

SMILES: CCCCCCCCCCCCCCCCCC(=O)NC(COP(=O)([O-])OCC[N+](C)(C)C)C(=O)OC [(R)-NALPCE, N-steroyl-O-phosphocholine-D-serine methyl ester]
- CD41 and CD61 expression rate [1]: increase in expression rate in a day-dependent manner
- fluorescence of fibrinogens bound to glycoprotein IIb/IIIa complexes [2]: increase in a day-dependent manner
